Read-outs that look alike come from different tables or passages of the source.
Experiments:
[1] = system: mouse primary microglial cells; experiment: Microglial phagocytosis of Aβ1-42 / Cy3-Aβ1-42 with CD40L (phagocytosis assay, quantitative immunoblotting); format: cell-based
Description: FIG. 4 is a graph showing CB2 stimulation modulates microglial phagocytic function. Mouse primary microglial cells were seeded at 5×10^5 cells/well and treated with 3 μM Cy3™-Aβ1-42 with CD-40L protein (2.5 μg/mL), JWH-015 (5 μM) or both JWH-015 and CD-40L. Aβ mean band densities are represented as ratios to β-actin+/−SD (n=3 for each condition).
To examine the functional consequences of CB2 agonist treatment on CD40 expression, mouse primary microglial cells were stimulated with either IFN-γ/CD40L protein (Polazzi, E., A. Contestabile, Reciprocal interactions between microglia and neurons: from survival to neuropathology. Rev. Neurosci., 2002. 13(3): 221-242; Facchinetti, F., et al., Cannabinoids ablate release of TNFalpha in rat microglial cells stimulated with lypopolysaccharide. Glia, 2003. 41(2): 161-168; Walter, L., et al., Nonpsychotropic cannabinoid receptors regulate microglial cell migration. J. Neurosci. 2003. 23(4):1398-405) or Aβ1-42/CD40L protein in the presence or absence of JWH-015 for 24 hr. […] The canonical microglial function in the CNS is thought to be phagocytosis, given that IFN-γ and CD40 signaling are maturation agents that oppose this phagocytic function. Murine primary microglial cultures were exposed to 3 μM of Aβ1-42 (for immunoblotting) or Cy3™-Aβ1-42 (for phagocytosis assay) in the presence or absence of CD40L protein or CD40L protein/JWH-015. After 3 hr, the amount of phagocytosed Aβ1-42 peptide was determined by quantitative immunoblotting experiments, seen in FIG. 4. […] CD40 ligation decreased microglial phagocytosis compared to controls, while CB2 agonist treatment alone increased phagocytosis compared to control. The presence of JWH-015 rescued microglial phagocytosis of Cy3-Aβ1-42 following CD40L treatment.

N9 cells = experiment: Cannabinoid agonist effects on microglial (N9) activation: TNF-α and NO release; format: cell-based, murine; details: JWH-015 5 μM
Description: (§1) FIG. 3 is a block graph showing cannabinoid agonist effects on microglial (N9) activation. Cultured microglial cells were incubated with 100 ng/mL LPS (LPS), a combination of IFN-γ (100 U/mL) and CD-40L (2 μg/mL), or a combination of Aβ1-42 (1 μM) and CD-40L (2 μg/mL) and co-treated with JWH-015 (5 μM). Anti-CB2 siRNA was added to cells, abolishing the ability of JWH-015 to reduce LPS-induced cytokine release (n=3, **p<0.05). ELISA analysis of microglial cell release of (A) TNF-α and (B) NO was measured and mean levels per mg of total protein shown.
Cannabinoid receptors are expressed on microglia and regulate microglial function. As such, cannabinoid regulation of CD40 activation of microglial was investigated. N9 cells, transfected for 18 hr with specific murine CB2 targeting siRNA (100 nM), were treated for 4 hr with lipopolysaccharid (LPS), a positive control of microglia activation.

[2] = system: mouse primary microglial cells; experiment: TNF-α secretion by primary microglial cells stimulated with IFN-γ/CD40L or Aβ1-42/CD40L (ELISA); format: cell-based; details: 24 hr, presence of JWH-015
Description: as §1
To examine the functional consequences of CB2 agonist treatment on CD40 expression, mouse primary microglial cells were stimulated with either IFN-γ/CD40L protein (Polazzi, E., A. Contestabile, Reciprocal interactions between microglia and neurons: from survival to neuropathology. Rev. Neurosci., 2002. 13(3): 221-242; Facchinetti, F., et al., Cannabinoids ablate release of TNFalpha in rat microglial cells stimulated with lypopolysaccharide. Glia, 2003. 41(2): 161-168; Walter, L., et al., Nonpsychotropic cannabinoid receptors regulate microglial cell migration. J. Neurosci. 2003. 23(4):1398-405) or Aβ1-42/CD40L protein in the presence or absence of JWH-015 for 24 hr. […] After 3 hr, the amount of phagocytosed Aβ1-42 peptide was determined by quantitative immunoblotting experiments, seen in FIG. 4. […]

[3] = system: primary cultured microglial cells; format: cell-based, murine
Description: Primary cultured microglial cells (1×10^5 cells/well in 24-well tissue-culture plates) were treated with FITC-tagged Aβ1-42 (300 nM, pre-aggregated for 24 h at 37° C. in complete medium for 60 mm in the absence (control) or presence of nicotine ([…]). In addition, in parallel 24-well tissue-culture plates, microglial cells were incubated at […] with the same treatment above. Cell supernatants and lysates were analyzed for (A) extracellular and (B) cell associated FITC-Aβ using a fluorometer.
Concentration-response and time-course functions for microglial phagocytosis (cellular uptake) of Aβ1-42 peptide were then characterized. […] To fully characterize these effects, primary microglial cells cultured in 24-well tissue-culture plates (1×10^5/well) were treated for 0, 15, 30, 60, 120, and 180 mm with “aged” FITC tagged Aβ1-42 peptide at 300 nM in the presence or absence of nicotine (0.1-10 μM), THC (0.01-10 μM), and their combination. The microglia were then administered nicotine (0.1-10 μM), THC (0.01-10 μM) and a combination. In addition, cannabinoid antagonists, AM 251 (CB1) and AM 281 […] (0.01-10 μM), cannabinoid agonists, ACEA (CB1) and JHW 015 (CB2) (0.01-10 μM), and nicotinic receptor antagonists, mecamylamine (α4β2) and α-bungorotoxin (α 7) (0.01-10 μM) were used in challenge experiments to determine receptor specificity. For fluorescence analysis, the cells were then washed 5 times with ice-cold PBS to remove the extracellular Aβ, and fixed in 4% paraformaldehyde. The cells were mounted and viewed under an Olympus IX71/IX51 fluorscence microscope equipped with a digital camera system. Image Pro software was used to quantify fluorescence signals, using a minimum of 5 random fields. For fluorometric analysis, microglial cells were treated in parallel, rinsing the cells 3 times with medium and the cells lysed. Extracellular and cell associated FITC tagged Aβ was quantified using an MFX 96-well microplate fluorometer (Molecular Devices, MDS, Inc., Sunnyvale, Calif.) with an emission wavelength of 538 nm and an excitation wavelength of 485 nm. A standard curve from 0 nM to 500 nM of FITC-tagged Aβ was run for each plate. The total cellular protein of all groups was quantified using the Bio-Rad protein assay. In addition, in parallel 24-well tissue-culture plates, microglial cells was incubated at 4° C. with FITC-conjugated Aβ with or without various combinations of CD40L as controls for non-specifically incorporated Aβ. Microglial cells was then rinsed 3 times in Aβ-free complete medium, and the media was exchanged with fresh Aβ-free complete medium for 10 min both to allow for removal of non-incorporated Aβ and to promote concentration of the Aβ into phagosomes. The mean fluorescence values for each sample at 37° C. and 4° C. at the indicated time points were determined by fluorometic analysis. Relative fold change values were calculated as: (mean fluorescence value for each sample at 37° C./mean fluorescence value for each sample at 4° C.). In this manner, both extracellular and cell associated FITC-labeled Aβ were quantified.
For phagocytosis experiments, an important concern is the possibility of extracellular association of Aβ with microglial cell membrane. To address this issue, microglial cells was rinsed in Aβ-free complete medium, and media was exchanged with fresh Aβ-medium for 10 mm both to allow for removal of non-specifically incorporated Aβ and to promote concentration of the Aβ into phagosomes. Microglial cells were further cultured in parallel 24-well plates incubated at 4° C. with FITC-tagged Aβ at the same time points in the presence or absence of the appropriate treatment as control for non-specifically incorporated Aβ.

microglial cells [4] = experiment: LPS-induced TNF-α release in cultured microglial cells (ELISA); format: cell-based, murine
Description: Cultured microglial cells were plated in 24-well tissue-culture plates (Costar, Cambridge, Mass.), using minimum essential media supplemented with 5% fetal bovine serum, at […] cells per well. […] After pretreatment the cells were stimulated with LPS (100 ng/mL) for 4 hrs. Cell-free supernatants were collected and stored at −70° C. until analysis. The TNF-α level in the supernatants were examined using ELISA kits (R&D Systems) in strict accordance with the manufacturers' protocols. Cell lysates were also prepared and the Bio-Rad protein assay (Hercules, Calif.) was performed to measure total cellular protein. Results are shown as mean pg of TNF-α per mg of total cellular protein (+1-SEM).
Murine primary culture microglial cells were isolated from newborn mouse cerebral cortices under sterile conditions and kept at 4° C. prior to mechanical dissociation. Cells were plated in 75 cm^2 flasks in RPMI medium supplemented with 5% fetal calf serum, 2 mM glutamine, 100 units/mL penicillin, 0.1 μg/mL streptomycin, and 0.05 mM 2-mercaptoethanol and kept for 14 days so only glial cells remain. The microglial cells were isolated by shaking the flasks at 200 rpm. More than 98% of the glial cells remaining stain positive for membrane attack complex-1 (CD-11b, Roche Diagnostics Corp., Indianapolis, Ind.). Additionally, between 85% and 95% of microglial cells usually stain positive for CD45 by fluorescence activated cell sorter (FACS) analysis.
Cell cultured media was collected for measurement of cytokines by commercial cytokine ELISA kits, as described previously. In parallel, cell lysates were prepared for measurement of total cellular protein. Data was represented as ng/mg total cellular protein for each cytokine production.
Cell cultures were treated with nicotinic/THC treatment, as described above. […] Each cytokine was represented as pg of cytokine/mg of total cellular protein. Data was analyzed using ANOVA with post hoc comparison using Bonferroni's or Dunnett's T3 methods as determined by Levene's test for equality of the variances.

Tg2576 transgenic mice = details: mouse, in vivo; cited from earlier work
microglial cells [5] = system: microglial cells

With `CCCn1c(C)c(C(=O)c2cccc3ccccc23)c2ccccc21` [JWH-015] the “microglial phagocytosis compared to control” value ([1]; CB2 agonist treatment alone, 3 μM Aβ1-42, 3 hr) was “increased”, the “microglial phagocytosis of Cy3-Aβ1-42 following CD40L treatment” value ([1]; JWH-015 5 μM with CD40L protein, 3 hr) was “rescued” and the “CD40L-mediated impairment of microglial phagocytosis of Aβ1-42 (band density ratio of Aβ to β-actin)” value ([1]; Western immunoblotting, parallel experiment) was “significant attenuation”. For the same compound, the “Aβ levels (Aβ band densities compared to β-actin)” value ([1]; quantitative immunoblotting, FIG. 4) was “significantly reduced”, the “Aβ/CD-40L-induced NO production” value (N9 cells; Aβ1-42 1 μM, CD-40L 2 μg/mL, FIG. 3(B)) was “significantly reduced” and the “IFN-γ/CD-40L-induced NO production” value (N9 cells; IFN-γ 100 U/mL, CD-40L 2 μg/mL, FIG. 3(B)) was “significantly reduced”. The “LPS-induced TNF-α release” value (N9 cells; N9 cells, LPS 100 ng/mL 4 hr, FIG. 3(A)) was “reductions”, the “secretion of TNF-α induced by Aβ1-42/CD40L” value [2] was “significantly reduced” and the “secretion of TNF-α induced by IFN-γ/CD40L” value [2] was “significantly reduced”.

With `CCCCCc1cc(O)c2c(c1)OC(C)(C)[C@@H]1CCC(C)=C[C@@H]21` [THC, Δ^9-tetrahydrocannabinol] the “cell-associated FITC-Aβ1-42” value ([3]; THC 5 μM) was “increasing”, the “extracellular FITC-Aβ1-42 remaining in the supernatant” value ([3]; THC 5 μM) was “markedly decreased” and the “receptor mediating the effect on microglial phagocytosis of Aβ” value ([3]; challenge experiments with receptor antagonists/agonists) was “cannabinoid CB2 receptors”.

In the case of `CNC1(C)C2CCC(C2)C1(C)C` (centres unmarked) [mecamylamine], the “prevention of the ACh and nicotine inhibition of LPS-induced TNF-α release” value (microglial cells [4]) was “prevented”.

For `CN1CCCC1c1cccnc1` (centres unmarked) [nicotine], the “reduction in insoluble Aβ1-40 and Aβ1-42 peptides” value (Tg2576 transgenic mice) is given as roughly 80%, the “microglial-released IL-1β” value (microglial cells [5]) is given as “effectively suppress” and the “microglial-released IL-6” value (microglial cells [5]) is given as “effectively suppress”. The “microglial-released TNF-α” value (microglial cells [5]) was “effectively suppress”, the “LPS-induced TNF-α release” value (microglial cells [4]) was “inhibited” and the “cell-associated FITC-Aβ1-42” value [3] was “increasing”. The “extracellular FITC-Aβ1-42 remaining in the supernatant” value [3] was “markedly decreased”, the “microglial phagocytosis of Aβ1-42 peptide” value [3] was “enhanced” and the “receptor mediating the effect on microglial phagocytosis of Aβ” value [3] was “α7 nicotinic receptors”.

In the case of α-bungarotoxin, the “prevention of the ACh and nicotine inhibition of LPS-induced TNF-α release” value (microglial cells [4]) was “prevented”.

From patent US20100267733A1, “Synergistic Modulation of Microglial Activation by Nicotine and THC” (UNIVERSITY OF SOUTH FLORIDA, priority 2007, published 2010)
